According to patent US20220256848A1, “NEO-BAVAISOFLAVONE AND COMPOSITIONS THEREOF AND THEIR USE AS PESTICIDES” (priority 2019, published 2022):
Marks after values point to notes of the source that are not given here.

Experiments:
Puccinia sorghi [1] = assay type: cell-based
Phytophthora infestans = assay type: cell-based; conditions: activity grade x repeats /12 x100
Botrytis cinerea = experiment: In-vitro screening against Botrytis cinerea; assay type: cell-based; conditions: grade x repeats x days of activity /168 x100
Source text: (§1) The bioactivity values are in % and reflect the potential of eradicating the target pests.
c. Botrytis cinerea—activity grade (1/2/3) X repeats# X days of activity/168 (maximal value 3×4×14=168)*100

Rhizoctonia solani = experiment: Microplate hyphae growth assay against Rhizoctonia solani; assay type: cell-based; conditions: grade x repeats x days of activity /252 x100
Experimental: Summary: Diluted purified neo-bavaisoflavone was added to microplate wells and mixed with 50 ul of hyphae suspension and growth of the fungus, starting from blended hyphae, was monitored by plate reader and visual inspection.
2) Add 50 ul of hyphae suspension to the wells of the microplate using a multi-pipette, mix the spore suspension vigorously by hand and decant amount needed for one plate (5 ml) to keep the hyphae well suspended
(§2) 4) Shake the plate for 10 min at 2000 RPM to mix the neo-bavaisoflavone with the hyphae suspension
(§3) 7) Read the plate using the plate reader
(§4) 9) Insert collected plates to a plastic box with cloth cover and put the box in the incubator at 27° C.
1) Screen plate at 3 more dates: 3d, 7d, 14d and 21d following the assay start
2) Calculate the difference of absorbance between each screen and the read at zero time
(§5) 3) Calculate the percentage of growth inhibition of each well at each time point. Use the results of the DMSO treatment of the control plate as 100% growth
as §1
(§6) b. Pseudomonas syringae, Rhizoctonia solani, Fusarium oxysporum, Pythium aphanidermatum—activity grade (1/2/3) X repeats# X days of activity/252 (maximal value 3×4×21=252)*100

Pythium aphanidermatum = experiment: Microplate zoospore growth assay against Pythium aphanidermatum; assay type: cell-based; conditions: grade x repeats x days of activity /252 x100
Experimental: Summary: Diluted purified neo-bavaisoflavone was added to microplate wells and mixed with 50 ul of zoospores in PDBC suspension and the growth of the fungus, starting from zoospores, was monitored by plate reader and visual inspection
2) Add 50 ul of zoospore suspension inoculum to the wells of the microplate using a multi-pipette. Mix the spore suspension vigorously by hand and decant amount needed for one plate (5 ml) to keep the zoospores well suspended
as §2, §3, §4
1) Read out the plate at 3 more dates: 3d, 7d, 14d and 21d following the assay start
2) Calculate the difference of absorbance between each readout and the readout at zero time
as §5
4) Prepare a table of the results of hits that were repeated in all 4 repeats. Set a column for each time point.
as §1
b. […]

Fusarium oxysporum = experiment: In-vitro screening against Fusarium oxysporum; assay type: cell-based; conditions: grade x repeats x days of activity /252 x100
Source text: as §1, §6

Sclerotinia sclerotiorum = experiment: Microplate hyphae growth assay against Sclerotinia sclerotiorum; assay type: cell-based
Experimental: Summary: Diluted purified neo-bavaisoflavone was added to microplate wells and mixed with 50 ul of hyphae suspension and growth of the fungus starting from blended hyphae was monitored by visual inspection.
Background: Sclerotinia sclerotiorum is a fungus of belonging to the Ascomycetes and it is a soil borne pathogen. It is difficult to produce large amounts of spores of Sclerotinia sclerotiorum, that led to decision to use hyphae in this screening rather than spores for inoculation.
2) Add 50 ul of hyphae suspension to the wells of the microplate, mix the spore suspension vigorously by hand and decant amount needed for one plate (5 ml) to keep the hyphae well suspended
as §2
7) Insert microplates into a plastic box and put the box in the incubator at 21° C.
1) Screen plate at […]: 4, 7, 14 and 21 days after inoculation
2) Use a lamp for visual assessment of compounds effect on fungal growth overtime
4) Compare the hyphal growth of each well to the hyphal growth of the control plate wells (Wells containing active fungicides or 0.5% DMSO solution)
5) Write the results on a special form: clear well=3 (no growth of hyphae), normal hyphal structure=1 (normal growth), inconclusive=2 (solid structure of unexpected type, or partial cover of the area) […]

[2] = tested on: Pectobacterium carotovorum; experiment: In-vitro screening against Pectobacterium carotovorum; assay type: cell-based; conditions: grade x repeats x days of activity /84 x100
Source text: as §1
d. Pectobacterium carotovorum—activity grade (1/2/3) X repeats# X days of activity/84 (maximal value 3×4×7=[…])*100

Pseudomonas syringae = experiment: Microplate bacterial growth assay against Pseudomonas syringae; assay type: cell-based; conditions: grade x repeats x days of activity /252 x100
Experimental: Summary: Diluted purified neo-bavaisoflavone was added to microplate wells and mixed with […] of frozen bacteria suspension and growth of the bacteria was monitored by visual inspection.
Background: Pseudomonas is a rod-shaped Gram-negative bacterium. Frozen bacteria stock of 60% glycerol was used as an inoculum for the screening experiment.
1) Take a plate with Neo-bavaisoflavone (10 ul) from the −20° C. freezer and thaw it on the bench for at least 20 min
2) Add 80 ul of bacteria suspension with growth medium to each well of the microplate using a multi-pipette
4) Shake the plate for 10 min at 2000 RPM to mix the Neo-bavaisoflavone with the bacteria suspension
6) Insert the plates to a plastic box with cover and put the box in the incubator at 28° C.
1) Screen the microplate at 5 dates: 3, 5, 7, 14 and 21 days after inoculation
2) Use a lamp to visually evaluate the bacterial growth
3) Prepare plates for screening: shake plate at 2000 RPM for 2 min to suspend the bacteria and then centrifuge plate at 1000 RCF for a few seconds
5) Compare the transparency of each well to the transparency of the control wells (wells containing control bactericide or 0.5% DMSO solution)
Write the results on a special form: clear=3 (no growth of bacteria), turbid=1(normal bacterial growth), inconclusive=2 (very low turbidity compared to growth in 0.5% DMSO solution) […]

Mizus Persicae = experiment: In-vitro screening matrix, Mizus Persicae
Source text: as §1

Spodoptera litoralis = experiment: In-vitro screening matrix, Spodoptera litoralis
Source text: as §1

Puccinia sorghi [3] = experiment: Puccinia infection of corn seedlings test (growth room); assay type: in vivo; conditions: corn plants, five independent growth room experiments
Source text: FIGS. 1-5 show effect of neo-bavaisoflavone (NBI) on corn leaf infection by Puccinia sorghi in five independent experiments, determined as leaf % covered by the fungus. *—p-value <0.05, **—p-value is <0.01, *** —p-value is <0.001. Signum—A reference fungicide containing 26.7% w/w boscalid and 6.7% w/w pyraclostrobin (BASF®). Fl, Formulation 1; F2, Formulation 2—see Example 5. ppm—parts per million.
In order to assist the compound dissolution to final working concentration and its spread over the sprayed surface first dry weighed Neo-bavaisoflavone was dissolved in dimethyl-sulfoxide solvent with 1:9 ratio and then brought up to the final volume used for the validation with double distilled water. Before spraying, non-ionic detergent tween 20 was added to final concentration of 0.05%.
In order to assist the compound dissolution to final working concentration and its spread over the sprayed surface first dry weighed Neo-bavaisoflavone was dissolved in absolute ethanol with 1:8 ratio, sonicated for 5 mins and then another part of non-ionic detergent tween 20 was added for formulation finalization. Before spraying, additional amount of 0.05% tween 20 was added (disregarding amount of tween 20 added before).
Protocol name: Puccinia infection of corn seedlings test
General description: inoculation on corn, collection, preparation of spore suspension and material activity study, of Puccinia sorghi.
• Use 8 days old seedlings prepared as explained above • Prepare treatment for spraying—about 1 ml for each plant • Add Tween 20 up to 0.05% to the treatments • Spray treatment on to the leaves till full saturation (use a spray bottle) and let dry in the growth room • Repeat spray on the second day and let dry • On the second day (after about 4 hours from the treatment spray) inoculate plants using the Puccinia spore suspension • Use spraying bottle to spray about 1 ml (till full saturation) of the spore suspension on to the leaves of 9 days old corn seedlings • Put the pots with the inoculated seedlings in a dark moist chamber with heated water at the bottom. […]

Puccinia triticina = Puccinia triticina infected wheat, growth room under controlled temperature; assay type: in vivo; conditions: 200 ppm
Source text: Mean of 3 independent replicates is presented. ** means that p-value is <0.01. Formulation 1 see “Formulation preparation for in-planta validation” below.
We conducted 3 independent experiments in greenhouse where we estimated neo-bavaisoflavone's (NBI) potential to prevent and control Puccinia triticina in wheat plants (FIG. 6). Each bar in FIG. 6 represents average of four replicates per treatment. Neo-bavaisoflavone controlled the leaf rust with the following efficacies: between 30% to 50% at 200 ppm and between 30% to 40% at 400 ppm. One additional experiment was conducted under controlled temperature in growth room conditions (FIG. 7) where neo-bavaisoflavone controlled the wheat leaf rust with the efficacy up to 40% at 200 ppm.

[4] = tested on: Puccinia stritiformis (yellow rust); experiment: Field validation in wheat, yellow rust leaf infection intensity (curative); assay type: in vivo; conditions: wheat field experiments
[5] = tested on: Puccinia stritiformis (yellow rust); experiment: Uredospores of yellow rust in pustules on field-treated wheat leaves (experiment 108); assay type: in vivo
[6] = Day 0 after field treatment, ±SE, experiment 108
[7] = Day 7 after field treatment, only one case, no replicates

## CC(C)=CCc1cc(-c2coc3cc(O)ccc3c2=O)ccc1O [Neo-bavaisoflavone]
Puccinia sorghi [1]
  Relative Activity value (%): 75%
Phytophthora infestans
  Relative Activity value (%): 0%
Botrytis cinerea
  Relative Activity value (%): 0%
Rhizoctonia solani
  Relative Activity value (%): 75%
Pythium aphanidermatum
  Relative Activity value (%): 75%
Fusarium oxysporum
  Relative Activity value (%): 0%
Sclerotinia sclerotiorum
  Relative Activity value (%): 17%
[2]
  Relative Activity value (%): 0%
Pseudomonas syringae
  Relative Activity value (%): 100%
Mizus Persicae
  Relative Activity value (%): 0%
Spodoptera litoralis
  Relative Activity value (%): 0%
Puccinia sorghi [3]; 200 ppm
  average efficacy in preventing and controlling Puccinia sorghi: 87.39%
Puccinia sorghi [3]; 400 ppm
  average efficacy in preventing and controlling Puccinia sorghi: 91.94%
Puccinia sorghi [3]; 800 ppm
  average efficacy in preventing and controlling Puccinia sorghi: 94.07%
Puccinia triticina
  efficacy of wheat leaf rust control: up to 40%
[4]
  relative leaf area covered by the fungi: significantly reduced
[5]; [6]
  Collapsed spores (Percent): 36.8 ± 13.03%
  Number of collapsed spores (No./pustule): 4.8 ± 2.03 No./pustule
  Number of uredospores/pustule: 14.8 ± 3.37 No.
[5]; [7]
  Collapsed spores (Percent): 1.9%
  Number of collapsed spores (No./pustule): 0.8 No./pustule
  Number of uredospores/pustule: 6.5* No.
